Measurements reported in patent publication US8211901B2, “Naphthamide derivatives as multi-target protein kinase inhibitors and histone deacetylase inhibitors” (Shenzhen Chipscreen Biosciences Ltd., priority 2009, dated 2012).

Legend:
[1] = tested on: human SSMC7721 liver cancer xenograft; test: Antitumor activity of compound 31, SSMC7721 xenograft (Example 53); assay type: in vivo, nu/nu mice
Protocol: (§1) The antitumor activity of compound 31 was measured in human SSMC7721 liver cancer xenograft model. The female nu/nu mice of 18˜20 g were fed by normal diet for 3 days. Then the cultured SSMC7721 human liver cancer cells were implanted into the armpit of 50 mice. […] One group was treated with vehicle. One group was treated with sutent, the positive control drug. […] Each group was dosed orally once a day for 30 days. Tumor volumes as established by caliper measurements were recorded twice per week, along with body weights. At the end of study, the mice were killed, and tumors were weighed. The tumor growth inhibition of each group was calculated using the formula {[(the average tumor weight of vehicle group)−(the average tumor weight of drug group)]/(the average tumor weight of vehicle group)}×100%.

[2] = tested on: total HDAC enzyme (HeLa extract); test: In vitro inhibition of total HDAC enzyme activity (HDAC Fluorimetric Assay/Drug Discovery Kit); assay type: biochemical
[3] = tested on: Bel-7402; test: Tumor cell proliferation (MTS), Bel-7402; assay type: cell-based; details: Homo sapiens, 72 hours, complete medium
Protocol: (§2) Measurement of In Vivo Cell Proliferation:
(§3) Tumor cells were trypsinized and plated into 96-well plates at 3,000 per well and incubated in complete medium with 10% FBS for 24 hours. Compounds were added over a final concentration range of 100 μmol/L to 100 nmol/L in 0.1% DMSO and incubated for 72 hours in complete medium. The effects on proliferation were determined by addition of MTS reagent (Promega) according to the instruction, incubation for 2 hours at 37° C. in CO2 incubator, and record the absorbance at 490 nm using an ELISA plate reader.
(§4) Human Cell Lines are Listed Below:
Bel-7402: Hepatocellular carcinoma

[4] = tested on: A549; test: Tumor cell proliferation (MTS), A549; assay type: cell-based; details: Homo sapiens, 72 hours, complete medium
Protocol: as §2, §3, §4
A549: Non small cell lung carcinoma

[5] = tested on: Class I HDAC; test: P21 reporter gene assay in HeLa cells; assay type: cell-based; details: 24 hours
[6] = Body weight in SSMC7721 xenograft study (Example 53); assay type: in vivo, nu/nu mice
Protocol: as §1

[7] = tested on: A-498; test: Tumor cell proliferation (MTS), A-498; assay type: cell-based; details: Homo sapiens, A498; 72 hours, complete medium
Protocol: as §2, §3

[8] = tested on: HUVEC cells; test: VEGF dependent cell proliferation (MTS); assay type: cell-based; details: Homo sapiens, VEGF 165 50 ng/ml, 72 hours, serum-free medium, read-out: GI50 nM (VEGF ligand-dependent cell proliferation)
[9] = tested on: MCF-7; test: Tumor cell proliferation (MTS), MCF-7; assay type: cell-based; details: Homo sapiens, MCF7; 72 hours, complete medium
Protocol: as §2, §3, §4
MCF-7: Mammary gland adenocarcinoma

[10] = tested on: HCT-8; test: Tumor cell proliferation (MTS), HCT-8; assay type: cell-based; details: Homo sapiens, 72 hours, complete medium
Protocol: as §2, §3, §4
HCT-8: Ileocecal colorectal adenocarcinoma

[11] = target: T1, human PDGFRβ (Homo sapiens, UniProt P09619); test: PDGF dependent cell proliferation (MTS); assay type: cell-based; details: PDGFRβ NIH-3T3 cells, PDGF BB 50 ng/ml, 72 hours, serum-free medium; read-out: GI50 nM (PDGF ligand-dependent cell proliferation)
T1 construct: expressed in transfected cells

[12] = 2.5 mg/kg orally once a day for 30 days
[13] = 5 mg/kg orally once a day for 30 days
[14] = 10 mg/kg orally once a day for 30 days
[15] = 20 mg/kg orally once a day for 30 days

T1 sequence (P09619 33-1106): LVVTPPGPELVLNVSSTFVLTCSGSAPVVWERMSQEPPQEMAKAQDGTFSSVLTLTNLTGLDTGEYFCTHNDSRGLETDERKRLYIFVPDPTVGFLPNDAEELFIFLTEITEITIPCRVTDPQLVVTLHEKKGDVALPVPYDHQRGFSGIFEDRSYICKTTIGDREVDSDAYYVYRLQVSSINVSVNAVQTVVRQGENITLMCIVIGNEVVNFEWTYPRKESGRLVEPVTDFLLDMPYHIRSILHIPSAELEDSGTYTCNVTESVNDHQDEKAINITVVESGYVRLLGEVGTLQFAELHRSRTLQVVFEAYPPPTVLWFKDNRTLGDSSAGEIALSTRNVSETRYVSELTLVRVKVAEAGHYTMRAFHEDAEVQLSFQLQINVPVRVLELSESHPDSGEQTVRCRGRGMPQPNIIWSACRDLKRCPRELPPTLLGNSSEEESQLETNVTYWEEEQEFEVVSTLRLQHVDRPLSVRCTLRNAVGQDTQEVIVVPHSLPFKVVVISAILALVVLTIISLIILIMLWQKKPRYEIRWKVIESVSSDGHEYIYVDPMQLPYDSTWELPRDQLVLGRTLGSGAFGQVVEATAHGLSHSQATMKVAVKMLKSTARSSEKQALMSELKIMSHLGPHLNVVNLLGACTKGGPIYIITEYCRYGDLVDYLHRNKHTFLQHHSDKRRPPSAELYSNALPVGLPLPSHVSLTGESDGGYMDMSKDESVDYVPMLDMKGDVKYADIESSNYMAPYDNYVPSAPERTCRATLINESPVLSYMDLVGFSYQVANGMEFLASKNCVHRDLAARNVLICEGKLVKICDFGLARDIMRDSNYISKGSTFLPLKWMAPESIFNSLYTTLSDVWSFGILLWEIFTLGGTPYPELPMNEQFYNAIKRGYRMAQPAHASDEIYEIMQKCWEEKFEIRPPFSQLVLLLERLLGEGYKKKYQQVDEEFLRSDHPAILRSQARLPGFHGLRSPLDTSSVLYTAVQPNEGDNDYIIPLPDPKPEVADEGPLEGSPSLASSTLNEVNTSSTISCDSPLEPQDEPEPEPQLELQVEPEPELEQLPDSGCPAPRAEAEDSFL

| Structure (SMILES) | % inhibition of total HDAC enzyme activity at 30 μM [2] | GI50 [3] | GI50 [4] | Class I HDAC (P21 reporter assay) Fold Induction at 10 μM [5] | GI50 [7] | GI50 [8] | GI50 [9] | GI50 [10] | GI50 [11] | also measured |
| --- | --- | --- | --- | --- | --- | --- | --- | --- | --- | --- |
| COc1ccc2c(Oc3ccc4c(C(=O)Nc5ccccc5N)cccc4c3)ccnc2c1 [Example 31, N-(2-aminophenyl)-6-(7-methoxyquinolin-4-yloxy)-1-naphthamide] | 10.1% | 30 µM | 17.3 µM | 1.6 Fold | 9.5 µM | 5 nM | 10.2 µM | 6.6 µM | 46 nM | TGI (%) Tumor growth inhibition [1, 12]: 51.7%; Tumor weight [1, 12]: 1.63 ± 0.70 g; TGI (%) Tumor growth inhibition [1, 13]: 65.4%; Tumor weight [1, 13]: 1.16 ± 0.55 g; TGI (%) Tumor growth inhibition [1, 14]: 79.2%; Tumor weight [1, 14]: 0.70 ± 0.45 g; TGI (%) Tumor growth inhibition [1, 15]: 84.4%; Tumor weight [1, 15]: 0.53 ± 0.28 g; Body weight (g) end [6, 12]: 23.2 ± 2.1 g; Body weight (g) start [6, 12]: 20.1 ± 0.9 g; Body weight (g) end [6, 13]: 24.8 ± 1.5 g; Body weight (g) start [6, 13]: 20.8 ± 1.2 g; Body weight (g) end [6, 14]: 23.6 ± 1.5 g; Body weight (g) start [6, 14]: 20.4 ± 1.6 g; Body weight (g) end [6, 15]: 21.0 ± 2.2 g; Body weight (g) start [6, 15]: 20.2 ± 1.7 g |
| COc1ccc2c(Oc3ccc4c(C(=O)NCc5ccc(C(=O)Nc6ccccc6N)cc5)cccc4c3)ccnc2c1 [Example 33, N-(4-((2-aminophenyl)carbamoyl)benzyl)-6-(7-methoxyquinolin-4-yloxy)-1-naphthamide] | 39.1% | 2.8 µM | 2.1 µM | 2.8 Fold | 1.9 µM | 8 nM | 2 µM | 1.5 µM | 300 nM | – |
